Results on two compounds are retold here after patent publication US20240391930A1, “SPIROCYCLIC BICYCLIC MODULATORS OF CHOLESTEROL BIOSYNTHESIS AND THEIR USE FOR PROMOTING REMYELINATION” (GENENTECH, INC., priority 2021, published 2024).

Test [1] addresses T1, human emopamil binding protein and human 7-dehydrocholesterol reductase (hEBP-DHCR7) (Homo sapiens, UniProt Q15125).
T1 construct: expressed in transfected cells; host or cells: HEK 293 cells, transient transfection with 2 DNA constructs
The experiment in a line: hEBP-DHCR7 radioligand filtration binding assay. As to conditions: membranes of HEK293 co-expressing hEBP and DHCR7; [3H] 2-thia-6-azaspiro[3.4]octane radioligand; 8 doses 0.06 to 5000 nM. The gist of the method:
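Membranes from HEK293 cells transiently co-expressing human EBP and DHCR7 (10 μg/well) incubated 3 h at 22 °C with tritiated 2-thia-6-azaspiro[3.4]octane dioxide radioligand (25 nM stock addition) and compound at 0.06–5000 nM final. Bound ligand collected on PEI-treated GF/B filters, scintillation-counted. IC50 by Hill fit; reported as Ki.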

A further test concerns the target T2, human EBP (Homo sapiens, UniProt Q15125).
T2 construct: expressed in transfected cells; host or cells: human embryonic kidney 293 cells
The experiment in a line: hEBP SPA competition binding assay ([3H]-Ifenprodil). As to the method: Membrane preparation: To examine compound binding affinity to EBP, human EBP was overexpressed in human embryonic kidney 293 cells. Cell pellet was lysed in 10 times weight binding buffer (50 mM Tris, 5 mM MgCl2, 0.1 mM EDTA, lx protease inhibitor cocktail, pH 7.5) on ice by using a dounce homogenizer. The solution was centrifuged at 25,000 g for 50 min at 4° C. The membrane pellet was re-suspended in binding buffer and run through a 25⅝ gauge needle. After checking the concentration by Bradford assay, the whole cell membrane solution was adjusted to 20 mg/mL and stored at −80° C.
This binding solution was centrifuged at 400 g for 5 minutes to collect the bead/membrane mixture. After re-suspending the pellet in binding buffer at the same calculated volume with 0.01% BSA (Sigma A1933), the bead/membrane mixture was added in 384-well low-binding surface plate (PerkinElmer Cat #6057480) at 25 µl/well. Radioligand at different concentrations with and without the non-radio-labeled same ligand 5 uM (for nonspecific and total signal, respectively) was added to bring final volume to 50 µl/well with DMSO concentration at 0.1%. At equilibrium (3 hours after ligand addition), radiometric signal CPM was counted by using a Microbeta2 microplate counter (Perkinelmer).
A pre-incubated bead/membrane mixture was added in compound plate at 0.3 mg beads and […] membrane per well. […] At equilibrium (3 hours after ligand addition), radiometric signal was counted as described above. The percentage inhibition of compound at each testing concentration was calculated by normalizing each condition's CPM readout to full block (5 uM non-radiolabeled ligand) and non-block (DMSO) control conditions. Compound binding inhibition IC50 was determined by nonlinear regression fitting of percentage inhibition plot against compound concentration. Compound Ki was calculated from the equation Ki=IC50/(1+[L]/Kd), which [L] was radioligand concentration used in assay. All tests had N bigger or equal to 2.

T1 sequence (Q15125 whole entry): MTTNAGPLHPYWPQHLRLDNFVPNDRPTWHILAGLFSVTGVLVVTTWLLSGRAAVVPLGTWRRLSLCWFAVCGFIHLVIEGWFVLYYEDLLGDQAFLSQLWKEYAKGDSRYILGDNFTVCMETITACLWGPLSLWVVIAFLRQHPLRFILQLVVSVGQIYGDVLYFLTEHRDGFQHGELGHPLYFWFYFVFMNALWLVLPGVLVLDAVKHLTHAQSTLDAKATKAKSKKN
T2 sequence (Q15125 whole entry): as above

Consider `CC(C)n1nc(-c2cc(C(F)(F)F)ccn2)cc1[C@H]1[C@@H]2C[C@@H](N3CCC4(C3)CS(=O)(=O)C4)C[C@@H]21` (single isomer, unassigned) [Compound 20], for which the results for the inhibition constant Ki (in test [1]; at human EBP) were 48.9 nM and 62 nM, respectively.

Turning to `CC(C)n1nc(-c2cccc(C(F)(F)F)n2)cc1[C@H]1[C@@H]2C[C@@H](N3CCC4(C3)CS(=O)(=O)C4)C[C@@H]21` (single isomer, unassigned) [Compound 11], the inhibitory constant (Ki) was 13.2 nM in test [1] and 36 nM at human EBP.

A word on the Ki: it is a measure of affinity in units of concentration, obtained from inhibition or displacement.
